Measured values published in patent US4243408A, “Herbicidal N-triazolylmethyl-substituted alpha-haloacetanilide” (Chevron Research Company, priority 1978, dated 1981).

Legend:
Type in all cases: in vivo
[1] = tested on: Lambsquarter (Chenopodium album); assay: Post-Emergent Test, herbicidal effectiveness; conditions: post-emergence, 504 h, 33 micrograms per cm^2, 3 weeks, 0-to-100 scale, read-out: Herbicidal Effectiveness, % Control Post, L
Watergrass (Echinochloa) [2] = assay: Post-Emergent Test, herbicidal effectiveness; conditions: post-emergence, 504 h, 33 micrograms per cm^2, 3 weeks, 0-to-100 scale, read-out: Herbicidal Effectiveness, % Control Post, W
[3] = tested on: Pigweed (Amaranthus retroflexus); assay: Post-Emergent Test, herbicidal effectiveness; conditions: post-emergence, 504 h, 33 micrograms per cm^2, 3 weeks, 0-to-100 scale, read-out: Herbicidal Effectiveness, % Control Post, P
[4] = tested on: Crabgrass (Digitaria sanguinalis); assay: Post-Emergent Test, herbicidal effectiveness; conditions: post-emergence, 504 h, 33 micrograms per cm^2, 3 weeks, 0-to-100 scale, read-out: Herbicidal Effectiveness, % Control Post, C
[5] = tested on: Mustard (Brassica arvensis); assay: Post-Emergent Test, herbicidal effectiveness; conditions: post-emergence, 504 h, 33 micrograms per cm^2, 3 weeks, 0-to-100 scale
Wild Oats (Avena fatua) [6] = assay: Post-Emergent Test, herbicidal effectiveness; conditions: post-emergence, 504 h, 33 micrograms per cm^2, 3 weeks, 0-to-100 scale, read-out: Herbicidal Effectiveness, % Control Post, O
[7] = tested on: Lambsquarter (Chenopodium album); assay: Pre-Emergent Test, herbicidal effectiveness; conditions: pre-emergence, 504 h, 33 micrograms per cm^2, 3 weeks, 0-to-100 scale, read-out: Herbicidal Effectiveness, % Control Pre, L
Method: (§1) An acetone solution of the test compound was prepared by mixing 750 mg of the compound, 220 mg of a nonionic surfactant and 25 ml of acetone. This solution was added to approximately 125 ml of water containing 156 mg of surfactant.
(§2) Seeds of the test vegetation were planted in a pot of soil and the test solution was sprayed uniformly onto the soil surface at a dose of 33 micrograms/cm^2. The pot was watered and placed in a greenhouse. […] At the end of this period, the herbicidal effectiveness of the compound was rated based on the physiological observations. A 0-to-100 scale was used, 0 representing no phytotoxicity, 100 representing complete kill.

Watergrass (Echinochloa) [8] = assay: Pre-Emergent Test, herbicidal effectiveness; conditions: pre-emergence, 504 h, 33 micrograms per cm^2, 3 weeks, 0-to-100 scale, read-out: Herbicidal Effectiveness, % Control Pre, W
Method: as §1, §2

[9] = tested on: Pigweed (Amaranthus retroflexus); assay: Pre-Emergent Test, herbicidal effectiveness; conditions: pre-emergence, 504 h, 33 micrograms per cm^2, 3 weeks, 0-to-100 scale, read-out: Herbicidal Effectiveness, % Control Pre, P
Method: as §1, §2

[10] = tested on: Crabgrass (Digitaria sanguinalis); assay: Pre-Emergent Test, herbicidal effectiveness; conditions: pre-emergence, 504 h, 33 micrograms per cm^2, 3 weeks, 0-to-100 scale, read-out: Herbicidal Effectiveness, % Control Pre, C
Method: as §1, §2

[11] = tested on: Mustard (Brassica arvensis); assay: Pre-Emergent Test, herbicidal effectiveness; conditions: pre-emergence, 504 h, 33 micrograms per cm^2, 3 weeks, 0-to-100 scale
Method: as §1, §2

Wild Oats (Avena fatua) [12] = assay: Pre-Emergent Test, herbicidal effectiveness; conditions: pre-emergence, 504 h, 33 micrograms per cm^2, 3 weeks, 0-to-100 scale, read-out: Herbicidal Effectiveness, % Control Pre, O
Method: as §1, §2

Compound	pest or weed control at 5000 µg/mL, 33 µg/cm2 [1] [%]	pest or weed control at 5000 µg/mL, 33 µg/cm2 (Watergrass (Echinochloa) [2]) [%]	pest or weed control at 5000 µg/mL, 33 µg/cm2 [3] [%]	pest or weed control at 5000 µg/mL, 33 µg/cm2 [4] [%]	pest or weed control at 5000 µg/mL, 33 µg/cm2 [5] [%]	pest or weed control at 5000 µg/mL, 33 µg/cm2 (Wild Oats (Avena fatua) [6]) [%]	pest or weed control at 33 µg/cm2 [7] [%]	pest or weed control at 33 µg/cm2 (Watergrass (Echinochloa) [8]) [%]	pest or weed control at 33 µg/cm2 [9] [%]	pest or weed control at 33 µg/cm2 [10] [%]	pest or weed control at 33 µg/cm2 [11] [%]	pest or weed control at 33 µg/cm2 (Wild Oats (Avena fatua) [12]) [%]
Cc1cccc(C)c1N(CCc1nnc[nH]1)C(=O)CCl [Compound 13]	0	63	0	60	0	20	75	97	40	85	20	25
Cc1nnc(CNc2ccc(Cl)c(Cl)c2)[nH]1 [Compound 27A]	0	0	0	0	0	0	0	0	0	0	0	0
Cc1nnc(C(C)N(C(=O)CCl)c2c(C)cccc2C)[nH]1 (stereo not drawn) [Compound 11B]	25	73	20	55	20	10	100	100	90	100	80	97
Cc1nnc(CNc2ccccc2C)[nH]1 [Compound 25A]	0	0	0	0	0	0	0	0	0	0	0	0
Cc1nnc(CN(C(=O)CCl)c2ccccc2C)[nH]1 [Compound 25B]	0	40	0	0	0	0	100	100	70	97	45	0
CCc1nnc(CNc2c(C)cccc2CC)[nH]1 [Compound 15A]	0	0	0	0	0	0	0	0	0	0	0	0
Cc1cccc(C)c1NCc1nnc(S)n1C [Compound 3, 3-(2,6-dimethylphenylaminomethyl)-4-methyl-5-mercapto-1,2,4-triazole]	0	0	0	0	0	0	0	0	0	0	0	0
CCc1cccc(C)c1N(Cc1nnc(C(C)C)[nH]1)C(=O)CCl [Compound 16B]	35	75	40	70	40	70	100	100	95	100	95	100
Cc1nnc(CN(C(=O)CCl)c2c(C)cccc2Cl)[nH]1 [Compound 22B]	20	60	75	0	25	0	85	100	93	100	80	95
CCc1nnc(CNc2c(CC)cccc2CC)[nH]1 [Compound 8A]	0	0	0	0	0	0	0	0	0	0	0	0
Cc1cccc(C)c1NC(C)c1nnc[nH]1 (stereo not drawn) [Compound 12A]	0	0	0	0	0	0	0	0	0	0	0	0
CCc1cccc(C)c1NCc1nnc(SC)n1C [Compound 21A]	0	0	0	0	0	0	0	0	0	0	0	0
Cc1nnc(CCNc2c(C)cccc2C)[nH]1 [Compound 10A]	0	0	0	0	0	0	0	0	0	0	0	0
